Results from US20260184687A1, “DIHYDROINDENE DERIVATIVES AS MALT1 INHIBITORS” (C4X Discovery Limited, priority 2022, published 2026).

system: IL-2 release from stimulated Jurkat cells; assay: Human IL-2 Release Phenotypic Assay (Assay 3); type: cell-based; conditions: Jurkat cells (clone E6-1), 200 ng/mL PMA + 300 ng/mL ionomycin, 48 hours, IL-2 by ELISA
Method: This assay measured the inhibition by MALT1 inhibitors of the IL-2 release from stimulated Jurkat cells, a human immortalized T lymphocyte cell line. IL-2 production from Jurkat cells is regulated by activation of NFκB signalling, which is in turn regulated by MALT1 protease activity.
Jurkat cells (clone E6-1, ATCC) were cultured in RPMI1640 supplemented with 10% (v/v) FBS and 1% (v/v) penicillin/streptomycin (100× liquid stocks). Cells were seeded in 96-well white tissue culture-treated plates (Perkin Elmer) at 50 000 cells/well and incubated overnight at 37° C., 5% CO2. Test compounds in DMSO at half-log dilutions were added to the cells and incubated for 30 mins. Final DMSO concentration was 0.5%. Cells were then stimulated with 200 ng/mL PMA+300 ng/mL ionomycin and incubated for 48 hours. […] IC50 values were calculated using GraphPad Prism using 4-parameter non-linear regression curve fit.

| SMILES | IC50 |
| --- | --- |
| CN(C(=O)C1CNC(=O)CO1)[C@@H](c1ccc(NC2Cc3ccccc3C2(C)C)cn1)C(F)(F)F (single isomer, unassigned) [Example 134] | 710 nM |
| CN(C(=O)C1CNC(=O)CO1)[C@@H](c1ccc(NC2Cc3ccccc3C2(C)C)cn1)C(F)(F)F (single isomer, unassigned) [Example 136] | 310 nM |
| CN(C(=O)C1CNC(=O)CO1)[C@@H](c1ccc(NC2Cc3ccccc3C2(C)C)cn1)C(F)(F)F (single isomer, unassigned) [Example 137] | 1250 nM |
| CN(C(=O)C1CN2CCC1CC2)[C@@H](c1ccc(NC2Cc3ccccc3C2(C)C)cn1)C(F)(F)F (single isomer, unassigned) [Example 141] | 1230 nM |
| CN(C(=O)[C@H]1C[C@@]2(CCN2C)C1)[C@@H](c1ccc(NC2Cc3ccccc3C2(C)C)cn1)C(F)(F)F (single isomer, unassigned) [Example 156] | 1720 nM |
| CN(C(=O)[C@H]1C[C@@]2(CCN2C)C1)[C@@H](c1ccc(NC2Cc3ccccc3C2(C)C)cn1)C(F)(F)F (single isomer, unassigned) [Example 157] | 770 nM |
| CN(C(=O)C1CC2(CNC(=O)OC2)C1)[C@@H](c1ccc(NC2Cc3ccccc3C2(C)C)nc1)C(F)(F)F (single isomer, unassigned) [Example 175] | 810 nM |
| CCN(C(=O)C1CCS(=O)(=O)CC1)[C@@H](c1ccc(NC2Cc3ccccc3C2(C)C)cn1)C(F)(F)F (single isomer, unassigned) [Example 188] | 650 nM |
| CCN(C(=O)C1CCS(=O)(=O)CC1)[C@@H](c1ccc(NC2Cc3ccccc3C2(C)C)cn1)C(F)(F)F (single isomer, unassigned) [Example 189] | 3000 nM |

Next, values leading:

| IC50 | SMILES |
| --- | --- |
| 280 nM | CN(C(=O)C1CCNC(=O)C1)[C@@H](c1ccc(NC2Cc3ccccc3C2(C)C)cn1)C(F)(F)F (single isomer, unassigned) [Example 118] |
| 1720 nM | CN(C(=O)C1CCNC(=O)C1)[C@@H](c1ccc(NC2Cc3ccccc3C2(C)C)cn1)C(F)(F)F (single isomer, unassigned) [Example 119] |
| 1290 nM | CN(C(=O)C1CCCNC1)[C@@H](c1ccc(NC2Cc3ccccc3C2(C)C)cn1)C(F)(F)F (single isomer, unassigned) [Example 124] |
| 330 nM | CN(C(=O)C1CCCNC1)[C@@H](c1ccc(NC2Cc3ccccc3C2(C)C)cn1)C(F)(F)F (single isomer, unassigned) [Example 125] |
| 700 nM | CN(C(=O)C1CCCNC1)[C@@H](c1ccc(NC2Cc3ccccc3C2(C)C)cn1)C(F)(F)F (single isomer, unassigned) [Example 126] |
| 1080 nM | CN1CCCC(C(=O)N(C)[C@@H](c2ccc(NC3Cc4ccccc4C3(C)C)cn2)C(F)(F)F)C1 (single isomer, unassigned) [Example 130] |
| 1370 nM | CN1CCC(C(=O)N(C)[C@@H](c2ccc(NC3Cc4ccccc4C3(C)C)cn2)C(F)(F)F)CC1 (single isomer, unassigned) [Example 132] |
| 600 nM | CN1CCC(C(=O)N(C)[C@@H](c2ccc(NC3Cc4ccccc4C3(C)C)cn2)C(F)(F)F)CC1 (single isomer, unassigned) [Example 133] |

molecular target: T1, FL hMALT1 enzyme (Homo sapiens, UniProt Q9UDY8); assay: biochemical; conditions: not given;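 further: Cell-free protease assay: enzyme preincubated with compound 30 min at room temperature, then cleavage of fluorogenic Ac-LVSR-AMC substrate (100 µM) tracked by fluorescence (ex 360/em 460 nm)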
T1 sequence (Q9UDY8 1-824): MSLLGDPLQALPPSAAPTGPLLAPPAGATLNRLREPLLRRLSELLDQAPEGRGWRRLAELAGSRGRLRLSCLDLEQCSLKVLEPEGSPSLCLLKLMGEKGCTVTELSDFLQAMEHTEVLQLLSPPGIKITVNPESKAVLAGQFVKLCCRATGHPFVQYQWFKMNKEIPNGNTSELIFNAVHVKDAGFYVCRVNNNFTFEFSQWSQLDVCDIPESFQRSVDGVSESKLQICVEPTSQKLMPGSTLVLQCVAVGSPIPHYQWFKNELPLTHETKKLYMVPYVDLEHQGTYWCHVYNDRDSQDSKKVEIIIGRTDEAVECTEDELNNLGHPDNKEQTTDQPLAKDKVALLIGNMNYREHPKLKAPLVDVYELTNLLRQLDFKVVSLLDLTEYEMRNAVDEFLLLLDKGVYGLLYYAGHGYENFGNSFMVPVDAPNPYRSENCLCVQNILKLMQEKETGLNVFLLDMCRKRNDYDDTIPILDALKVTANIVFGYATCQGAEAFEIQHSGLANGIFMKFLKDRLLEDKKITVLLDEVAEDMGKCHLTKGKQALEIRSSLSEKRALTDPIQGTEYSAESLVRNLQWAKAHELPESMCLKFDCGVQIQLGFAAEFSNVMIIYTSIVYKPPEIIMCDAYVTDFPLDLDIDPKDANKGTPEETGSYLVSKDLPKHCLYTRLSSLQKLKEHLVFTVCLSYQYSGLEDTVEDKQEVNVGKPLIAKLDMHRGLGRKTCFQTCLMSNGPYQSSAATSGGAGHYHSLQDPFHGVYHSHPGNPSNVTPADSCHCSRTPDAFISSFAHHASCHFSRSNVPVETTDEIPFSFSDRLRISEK

| SMILES | IC50 |
| --- | --- |
| CN(C(=O)C1CNC(=O)CO1)[C@@H](c1ccc(NC2Cc3ccccc3C2(C)C)cn1)C(F)(F)F (single isomer, unassigned) [Example 134] | 160 nM |
| CN(C(=O)C1CNC(=O)CO1)[C@@H](c1ccc(NC2Cc3ccccc3C2(C)C)cn1)C(F)(F)F (single isomer, unassigned) [Example 136] | 36 nM |
| CN(C(=O)C1CNC(=O)CO1)[C@@H](c1ccc(NC2Cc3ccccc3C2(C)C)cn1)C(F)(F)F (single isomer, unassigned) [Example 137] | 150 nM |
| CN(C(=O)C1CN2CCC1CC2)[C@@H](c1ccc(NC2Cc3ccccc3C2(C)C)cn1)C(F)(F)F (single isomer, unassigned) [Example 141] | 210 nM |
| CN(C(=O)[C@H]1C[C@@]2(CCN2C)C1)[C@@H](c1ccc(NC2Cc3ccccc3C2(C)C)cn1)C(F)(F)F (single isomer, unassigned) [Example 156] | 170 nM |
| CN(C(=O)[C@H]1C[C@@]2(CCN2C)C1)[C@@H](c1ccc(NC2Cc3ccccc3C2(C)C)cn1)C(F)(F)F (single isomer, unassigned) [Example 157] | 64 nM |
| CN(C(=O)C1CC2(CNC(=O)OC2)C1)[C@@H](c1ccc(NC2Cc3ccccc3C2(C)C)nc1)C(F)(F)F (single isomer, unassigned) [Example 175] | 54 nM |
| CCN(C(=O)C1CCS(=O)(=O)CC1)[C@@H](c1ccc(NC2Cc3ccccc3C2(C)C)cn1)C(F)(F)F (single isomer, unassigned) [Example 188] | 47 nM |
| CCN(C(=O)C1CCS(=O)(=O)CC1)[C@@H](c1ccc(NC2Cc3ccccc3C2(C)C)cn1)C(F)(F)F (single isomer, unassigned) [Example 189] | 91 nM |

More lines, now with the values ahead:

| IC50 | SMILES |
| --- | --- |
| 49 nM | CN(C(=O)C1CCNC(=O)C1)[C@@H](c1ccc(NC2Cc3ccccc3C2(C)C)cn1)C(F)(F)F (single isomer, unassigned) [Example 118] |
| 150 nM | CN(C(=O)C1CCNC(=O)C1)[C@@H](c1ccc(NC2Cc3ccccc3C2(C)C)cn1)C(F)(F)F (single isomer, unassigned) [Example 119] |
| 190 nM | CN(C(=O)C1CCCNC1)[C@@H](c1ccc(NC2Cc3ccccc3C2(C)C)cn1)C(F)(F)F (single isomer, unassigned) [Example 124] |
| 62 nM | CN(C(=O)C1CCCNC1)[C@@H](c1ccc(NC2Cc3ccccc3C2(C)C)cn1)C(F)(F)F (single isomer, unassigned) [Example 125] |
| 120 nM | CN(C(=O)C1CCCNC1)[C@@H](c1ccc(NC2Cc3ccccc3C2(C)C)cn1)C(F)(F)F (single isomer, unassigned) [Example 126] |
| 120 nM | CN1CCCC(C(=O)N(C)[C@@H](c2ccc(NC3Cc4ccccc4C3(C)C)cn2)C(F)(F)F)C1 (single isomer, unassigned) [Example 130] |
| 250 nM | CN1CCC(C(=O)N(C)[C@@H](c2ccc(NC3Cc4ccccc4C3(C)C)cn2)C(F)(F)F)CC1 (single isomer, unassigned) [Example 132] |
| 150 nM | CN1CCC(C(=O)N(C)[C@@H](c2ccc(NC3Cc4ccccc4C3(C)C)cn2)C(F)(F)F)CC1 (single isomer, unassigned) [Example 133] |
